Experimental data: ChEMBL document CHEMBL4196211, “In Vitro Mechanistic Study of the Anti-inflammatory Activity of a Quinoline Isolated from Spondias pinnata Bark” (J Nat Prod, 2018)
Each block holds one compound with its values, some of them ahead of it. Active and inactive are the calls of the source. The rule behind the calls is not given here.

Key:
[1] = test system: RAW264.7; experiment: Antiinflammatory activity against mouse RAW264.7 cells assessed as inhibition of LPS-induced IL-1beta production at 20 uM pretreated for 6 hrs followed by LPS stimulation measured after 24 hrs by ELISA; format: functional, cell-based
[2] = test system: RAW264.7; experiment: Antiinflammatory activity against mouse RAW264.7 cells assessed as inhibition of LPS-induced IL-6 production at 20 uM pretreated for 6 hrs followed by LPS stimulation measured after 24 hrs by ELISA; format: functional, cell-based
[3] = test system: RAW264.7; experiment: Antiinflammatory activity against mouse RAW264.7 cells assessed as inhibition of LPS-induced nitrite production at 20 uM pretreated for 6 hrs followed by LPS stimulation measured after 24 hrs by […]; format: functional, cell-based
[4] = test system: RAW264.7; experiment: Antiinflammatory activity against mouse RAW264.7 cells assessed as inhibition of LPS-induced TNFalpha production at 20 uM pretreated for 6 hrs followed by LPS stimulation measured after 24 hrs by ELISA; format: functional, cell-based
[5] = test system: RAW264.7; experiment: Cytotoxicity against mouse RAW264.7 cells assessed as reduction in cell viability at 50 to 100 uM after 48 hrs by WST-1 assay; format: cell-based; details: raw264.7, 48 h
[6] = test system: RAW264.7; experiment: Inhibition of NF-kappaB nuclear localization in LPS-induced mouse RAW264.7 cells at 50 to 100 uM pretreated for 6 hrs followed by LPS stimulation measured after 2 hrs by DAPI/FITC staining based laser scanning confocal microscopy; format: cell-based
[7] = test system: RAW264.7; experiment: Effect on beta-actin expression level in LPS-induced mouse RAW264.7 cells at 50 uM pretreated for 6 hrs followed by LPS stimulation measured after 2 hrs by Western blot analysis (reference value: 0.99); format: ADME, cell-based; details: raw264.7, 2 h
[8] = test system: RAW264.7; experiment: Inhibition of NF-kappaB in mouse RAW264.7 cells assessed as LPS-induced cytosolic NF-kappaB level at 100 uM pretreated for 6 hrs followed by LPS stimulation measured after 2 hrs by Western blot analysis (reference value: 0.13); format: cell-based
[9] = test system: RAW264.7; experiment: Effect on LPS-induced I-kappaB level in mouse RAW264.7 cells at 75 uM pretreated for 6 hrs followed by LPS stimulation measured after 2 hrs by Western blot analysis (reference value: 0.44); format: cell-based
[10] = test system: RAW264.7; experiment: Inhibition of NF-kappaB in mouse RAW264.7 cells assessed as LPS-induced iNOS expression level at 70 uM pretreated for 6 hrs followed by LPS stimulation measured after 24 hrs by Western blot analysis (reference value: 5.69); format: cell-based
[11] = test system: RAW264.7; experiment: Effect on LPS-induced I-kappaB level in mouse RAW264.7 cells at 50 uM pretreated for 6 hrs followed by LPS stimulation measured after 2 hrs by Western blot analysis (reference value: 0.44); format: cell-based
[12] = test system: RAW264.7; experiment: Antiinflammatory activity against mouse RAW264.7 cells assessed as inhibition of LPS-induced nitrite production at 100 uM pretreated for 6 hrs followed by LPS stimulation measured after 24 hrs by […]; format: functional, cell-based
[13] = test system: RAW264.7; experiment: Inhibition of NF-kappaB in mouse RAW264.7 cells assessed as LPS-induced iNOS expression level at 100 uM pretreated for 6 hrs followed by LPS stimulation measured after 24 hrs by Western blot analysis (reference value: 5.69); format: cell-based
[14] = test system: RAW264.7; experiment: Inhibition of NF-kappaB in mouse RAW264.7 cells assessed as reduction in LPS-induced IL-1beta mRNA level at 50 to 100 uM by qRT-PCR analysis; format: cell-based
[15] = test system: RAW264.7; experiment: Effect on tubulin expression level in LPS-induced mouse RAW264.7 cells at 75 uM pretreated for 6 hrs followed by LPS stimulation measured after 2 hrs by Western blot analysis (reference value: 1.02); format: ADME, cell-based; details: raw264.7, 2 h
[16] = test system: RAW264.7; experiment: Antiinflammatory activity against mouse RAW264.7 cells assessed as inhibition of LPS-induced IL-1beta production at 50 to 100 uM pretreated for 6 hrs followed by LPS stimulation measured after 24 hrs by ELISA; format: functional, cell-based
[17] = test system: RAW264.7; experiment: Effect on tubulin expression level in LPS-induced mouse RAW264.7 cells at 50 uM pretreated for 6 hrs followed by LPS stimulation measured after 2 hrs by Western blot analysis (reference value: 1.02); format: ADME, cell-based; details: raw264.7, 2 h
[18] = test system: RAW264.7; experiment: Inhibition of NF-kappaB in mouse RAW264.7 cells assessed as reduction in LPS-induced TNFalpha mRNA level at 50 to 100 uM by qRT-PCR analysis; format: cell-based
[19] = species: Mus musculus; experiment: Effect on LPS-induced I-kappaB phosphorylation at 50 uM pretreated for 6 hrs followed by LPS stimulation measured after 2 hrs by Western blot analysis (reference value: 2.22)
[20] = test system: RAW264.7; experiment: Effect on beta-actin expression level in LPS-induced mouse RAW264.7 cells at 75 uM pretreated for 6 hrs followed by LPS stimulation measured after 2 hrs by Western blot analysis (reference value: 0.99); format: ADME, cell-based; details: raw264.7, 2 h
[21] = test system: RAW264.7; experiment: Effect on beta-actin expression level in LPS-induced mouse RAW264.7 cells at 75 uM pretreated for 6 hrs followed by LPS stimulation measured after 24 hrs by Western blot analysis (reference value: 0.95); format: ADME, cell-based; details: raw264.7, 24 h
[22] = test system: RAW264.7; experiment: Effect on LPS-induced I-kappaB level in mouse RAW264.7 cells at 100 uM pretreated for 6 hrs followed by LPS stimulation measured after 2 hrs by Western blot analysis (reference value: 0.44); format: cell-based
[23] = test system: RAW264.7; experiment: Effect on tubulin expression level in LPS-induced mouse RAW264.7 cells at 100 uM pretreated for 6 hrs followed by LPS stimulation measured after 2 hrs by Western blot analysis (reference value: 1.02); format: ADME, cell-based; details: raw264.7, 2 h
[24] = test system: RAW264.7; experiment: Antiinflammatory activity against mouse RAW264.7 cells assessed as inhibition of LPS-induced IL-6 production at 50 to 100 uM pretreated for 6 hrs followed by LPS stimulation measured after 24 hrs by ELISA; format: functional, cell-based
[25] = test system: RAW264.7; experiment: Inhibition of NF-kappaB in mouse RAW264.7 cells assessed as LPS-induced nuclear NF-kappaB level at 100 uM pretreated for 6 hrs followed by LPS stimulation measured after 2 hrs by Western blot analysis (reference value: 6.77); format: cell-based
[26] = test system: RAW264.7; experiment: Antiinflammatory activity against mouse RAW264.7 cells assessed as inhibition of LPS-induced intracellular ROS production at 50 to 100 uM pretreated for 12 hrs followed by LPS stimulation measured after 24 hrs by DCF-DA probe based flow cytometry; format: functional, cell-based
[27] = test system: RAW264.7; experiment: Antiinflammatory activity against mouse RAW264.7 cells assessed as inhibition of LPS-induced TNFalpha production at 100 uM pretreated for 6 hrs followed by LPS stimulation measured after 24 hrs by ELISA; format: functional, cell-based
[28] = test system: RAW264.7; experiment: Inhibition of NF-kappaB in mouse RAW264.7 cells assessed as LPS-induced nuclear NF-kappaB level at 75 uM pretreated for 6 hrs followed by LPS stimulation measured after 2 hrs by Western blot analysis (reference value: 6.77); format: cell-based
[29] = test system: RAW264.7; experiment: Inhibition of NF-kappaB in mouse RAW264.7 cells assessed as LPS-induced COX-2 expression level at 100 uM pretreated for 6 hrs followed by LPS stimulation measured after 24 hrs by Western blot analysis (reference value: 2.02); format: cell-based
[30] = test system: RAW264.7; experiment: Effect on beta-actin expression level in LPS-induced mouse RAW264.7 cells at 50 uM pretreated for 6 hrs followed by LPS stimulation measured after 24 hrs by Western blot analysis (reference value: 0.95); format: ADME, cell-based; details: raw264.7, 24 h
[31] = test system: RAW264.7; experiment: Inhibition of NF-kappaB in mouse RAW264.7 cells assessed as LPS-induced iNOS expression level at 50 uM pretreated for 6 hrs followed by LPS stimulation measured after 24 hrs by Western blot analysis (reference value: 5.69); format: cell-based
[32] = test system: RAW264.7; experiment: Inhibition of NF-kappaB in mouse RAW264.7 cells assessed as reduction in LPS-induced COX-2 mRNA level at 50 to 100 uM by qRT-PCR analysis; format: cell-based
[33] = test system: RAW264.7; experiment: Inhibition of NF-kappaB in mouse RAW264.7 cells assessed as reduction in LPS-induced iNOS expression level pretreated for 6 hrs followed by LPS stimulation measured after 24 hrs by Western blot analysis; format: cell-based
[34] = test system: RAW264.7; experiment: Effect on beta-actin expression level in LPS-induced mouse RAW264.7 cells at 100 uM pretreated for 6 hrs followed by LPS stimulation measured after 2 hrs by Western blot analysis (reference value: 0.99); format: ADME, cell-based; details: raw264.7, 2 h
[35] = species: Mus musculus; experiment: Effect on LPS-induced I-kappaB phosphorylation at 75 uM pretreated for 6 hrs followed by LPS stimulation measured after 2 hrs by Western blot analysis (reference value: 2.22)
[36] = test system: RAW264.7; experiment: Inhibition of NF-kappaB in mouse RAW264.7 cells assessed as LPS-induced cytosolic NF-kappaB level at 50 uM pretreated for 6 hrs followed by LPS stimulation measured after 2 hrs by Western blot analysis (reference value: 0.13); format: cell-based
[37] = test system: RAW264.7; experiment: Inhibition of LPS-induced I-kappaB phosphorylation in mouse RAW264.7 cells pretreated for 6 hrs followed by LPS stimulation measured after 2 hrs by Western blot analysis; format: cell-based
[38] = test system: RAW264.7; experiment: Effect on beta-actin expression level in LPS-induced mouse RAW264.7 cells at 100 uM pretreated for 6 hrs followed by LPS stimulation measured after 24 hrs by Western blot analysis (reference value: 0.95); format: ADME, cell-based; details: raw264.7, 24 h
[39] = test system: RAW264.7; experiment: Inhibition of NF-kappaB in mouse RAW264.7 cells assessed as LPS-induced COX-2 expression level at 75 uM pretreated for 6 hrs followed by LPS stimulation measured after 24 hrs by Western blot analysis (reference value: 2.02); format: cell-based
[40] = test system: RAW264.7; experiment: Inhibition of NF-kappaB in mouse RAW264.7 cells assessed as LPS-induced COX-2 expression level at 50 uM pretreated for 6 hrs followed by LPS stimulation measured after 24 hrs by Western blot analysis (reference value: 2.02); format: cell-based
[41] = test system: RAW264.7; experiment: Inhibition of NF-kappaB in mouse RAW264.7 cells assessed as reduction in LPS-induced IL-6 mRNA level at 50 to 100 uM by qRT-PCR analysis; format: cell-based
[42] = test system: RAW264.7; experiment: Inhibition of NF-kappaB in mouse RAW264.7 cells assessed as LPS-induced cytosolic NF-kappaB level at 75 uM pretreated for 6 hrs followed by LPS stimulation measured after 2 hrs by Western blot analysis (reference value: 0.13); format: cell-based
[43] = test system: RAW264.7; experiment: Inhibition of NF-kappaB in mouse RAW264.7 cells assessed as LPS-induced nuclear NF-kappaB level at 50 uM pretreated for 6 hrs followed by LPS stimulation measured after 2 hrs by Western blot analysis (reference value: 6.77); format: cell-based
[44] = species: Mus musculus; experiment: Effect on LPS-induced I-kappaB phosphorylation at 100 uM pretreated for 6 hrs followed by LPS stimulation measured after 2 hrs by Western blot analysis (reference value: 2.22)
[45] = test system: RAW264.7; experiment: Inhibition of NF-kappaB in mouse RAW264.7 cells assessed as reduction in LPS-induced iNOS mRNA level at 50 to 100 uM by qRT-PCR analysis; format: cell-based

SMILES: C[C@@H]1C[C@H]2[C@@H]3CCC4=CC(=O)C=C[C@]4(C)[C@@]3(F)[C@@H](O)C[C@]2(C)[C@@]1(O)C(=O)CO
- inhibition [1]: Active
- inhibition [2]: Active
- inhibition [3]: Active
- inhibition [4]: Active

- fold change (FC) [7]: 0.94
- fold change (FC) [15]: 0.96
- fold change (FC) [17]: 0.93
- fold change (FC) [19]: 1.86
- fold change (FC) [20]: 0.96
- fold change (FC) [21]: 1
- fold change (FC) [23]: 1.01
- fold change (FC) [30]: 0.95
- fold change (FC) [34]: 1
- fold change (FC) [35]: 1.11
- fold change (FC) [38]: 0.96
- fold change (FC) [44]: 1.05
SMILES: COc1cc2ccc(=O)[nH]c2cc1O
- Activity [5]: Non-Toxic
- inhibition [6]: Active
- fold change (FC) [8]: 0.97
- fold change (FC) [9]: 0.85
- fold change (FC) [10]: 1.98
- fold change (FC) [11]: 0.64
- inhibition [12]: Active
- fold change (FC) [13]: 1.04
- inhibition [14]: Active
- inhibition [16]: Active
- inhibition [18]: Active
- fold change (FC) [22]: 0.99
- inhibition [24]: Active
- fold change (FC) [25]: 1.56
- inhibition [26]: Active
- inhibition [27]: Active
- fold change (FC) [28]: 3.89
- fold change (FC) [29]: 1.02
- fold change (FC) [31]: 3.4
- inhibition [32]: Active
- inhibition [33]: Dose-dependent effect
- fold change (FC) [36]: 0.3
- inhibition [37]: Dose-dependent effect
- fold change (FC) [39]: 1.29
- fold change (FC) [40]: 1.72
- inhibition [41]: Active
- fold change (FC) [42]: 0.91
- fold change (FC) [43]: 5.25
- inhibition [45]: Active
